In patent publication US6737383B1, “Herbicidal oxadiazolidines” (priority 1999, dated 2004):

What was measured:
[1] = tested on: purple nutsedge; assay: Test B pre/postemergence purple nutsedge; type: in vivo, Cyperus rotundus
Outline: (§1)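 Herbicidal effect was estimated by eye on a ten-point control scale after plants spent twelve to sixteen days in a greenhouse following soil or foliar treatment. Foliar sprays targeted plants at one to four leaves; all doses were formulated in a non-phytotoxic solvent with surfactant.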

[2] = tested on: smallflower flatsedge; assay: Test B flood test smallflower flatsedge; type: in vivo, Cyperus difformis; settings: for Plant response rating, S. Flatsedge (0 to 10 scale, 0 is no effect, 10 is complete control): Rate 62 g/ha; for Plant response rating, S. Flatsedge (0 to 10 scale, 0 is no effect, 10 is complete control) / S. Flatsedge plant response rating (0 to 10 scale, 0 is no effect, 10 is complete control): visual evaluation after twelve to sixteen days; for S. Flatsedge plant response rating (0 to 10 scale, 0 is no effect, 10 is complete control): under heading Pre-emergence
Outline: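 Plants were grown to the 2-leaf stage before treatment with test chemical, then held in a greenhouse for twelve to sixteen days. Injury was visually rated against untreated controls on a 0–10 scale, where 0 is no effect and 10 is complete control.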

[3] = tested on: rape; assay: Test B pre/postemergence rape; type: in vivo, Brassica napus
Outline: as §1

[4] = tested on: bedstraw; assay: Test B pre/postemergence bedstraw; type: in vivo, Galium aparine; settings: Rate 62 g/ha, Postemergence; scale 0 to 10 (0 no effect, 10 complete control)
Outline: as §1

[5] = Postemergence, Rate 250 g/ha, scale 0 to 10
[6] = Postemergence, Rate 500 g/ha, scale of 0 to 10 where 0 is no effect and 10 is complete control
[7] = Preemergence, Rate 62 g/ha, scale 0 to 10 (0 no effect, 10 complete control)
[8] = Preemergence, Rate 125 g/ha, scale of 0 to 10 where 0 is no effect and 10 is complete control
[9] = Preemergence, Rate 250 g/ha, scale 0 to 10, 0 is no effect, 10 is complete control
[10] = Preemergence, Rate 500 g/ha, scale 0 to 10, 0 is no effect, 10 is complete control
[11] = Rate 125 g/ha, Postemergence, scale 0 to 10, 0 is no effect, 10 is complete control
[12] = Preemergence, Rate 62 g/ha, scale of 0 to 10 where 0 is no effect and 10 is complete control
[13] = Rate 62 g/ha, Postemergence, scale 0 to 10 (0 no effect, 10 complete control)
[14] = flood test species, Pre-emergence
[15] = Rate 125 g/ha, flood test species
[16] = Rate 250 g/ha, Pre-emergence (flood test species), scale 0 to 10, 0 is no effect, 10 is complete control
[17] = Rate 500 g/ha, Pre-emergence, flood test species, scale 0 to 10 (0 no effect, 10 complete control)

CC(C)N(C(=O)n1oc(=O)n(C2CCCCCC2)c1=O)C1=CCCCC1 [Compound 428]
9: S. Flatsedge plant response rating ([2]; Postemergence section (flood test species), Rate 500 g/ha, scale of 0 to 10 where 0 is no effect and 10 is complete control)
0: Nutsedge plant response rating [1, 5] | Nutsedge plant response rating [1, 6] | Plant response rating, Nutsedge [1, 7] | Plant response rating, Nutsedge [1, 8] | Nutsedge plant response rating [1, 9] | Nutsedge plant response rating [1, 10] | Nutsedge plant response rating [1, 11] | S. Flatsedge plant response rating ([2]; Postemergence block (flood test species), Rate 250 g/ha, scale 0 to 10) | S. Flatsedge plant response rating ([2]; Rate 125 g/ha, Postemergence section (flood test species), scale 0 to 10, 0 is no effect, 10 is complete control) | Rape plant response rating [3, 5] | Rape plant response rating [3, 6] | Plant response rating, Rape [3, 7] | Plant response rating, Rape [3, 8] | Rape plant response rating [3, 9] | Rape plant response rating [3, 10] | Rape plant response rating [3, 11]

CC(C)N(C(=O)n1oc(=O)n(CNC(=O)c2ccccc2)c1=O)c1ccc(F)cc1 [Compound 445]
2: Rape plant response rating [3, 5] | Rape plant response rating [3, 6] | Rape plant response rating [3, 10]
0: Nutsedge plant response rating [1, 5] | Nutsedge plant response rating [1, 6] | Plant response rating, Nutsedge [1, 12] | Plant response rating, Nutsedge [1, 8] | Nutsedge plant response rating [1, 9] | Nutsedge plant response rating [1, 10] | Nutsedge plant response rating [1, 13] | Nutsedge plant response rating [1, 11] | Plant response rating, S. Flatsedge (0 to 10 scale, 0 is no effect, 10 is complete control) [2, 14] | S. Flatsedge plant response rating (0 to 10 scale, 0 is no effect, 10 is complete control) [2, 15] | S. Flatsedge plant response rating [2, 16] | S. Flatsedge plant response rating [2, 17] | Plant response rating, Rape [3, 12] | Plant response rating, Rape [3, 8] | Rape plant response rating [3, 9] | Rape plant response rating [3, 13] | Rape plant response rating [3, 11]

COCC(OC)n1c(=O)on(C(=O)N(c2ccc(F)cc2)C(C)C)c1=O (stereo not shown) [Compound 446]
10: Rape plant response rating [3, 10]
8: Rape plant response rating [3, 9]
0: Nutsedge plant response rating [1, 5] | Nutsedge plant response rating [1, 6] | Plant response rating, Nutsedge [1, 12] | Plant response rating, Nutsedge [1, 8] | Nutsedge plant response rating [1, 9] | Nutsedge plant response rating [1, 10] | Nutsedge plant response rating [1, 13] | Nutsedge plant response rating [1, 11] | Bedstraw plant response rating [4] | Plant response rating, S. Flatsedge (0 to 10 scale, 0 is no effect, 10 is complete control) [2, 14] | S. Flatsedge plant response rating (0 to 10 scale, 0 is no effect, 10 is complete control) [2, 15] | S. Flatsedge plant response rating [2, 16] | S. Flatsedge plant response rating [2, 17] | Rape plant response rating [3, 5] | Rape plant response rating [3, 6] | Plant response rating, Rape [3, 12] | Plant response rating, Rape [3, 8] | Rape plant response rating [3, 13] | Rape plant response rating [3, 11]

COC(CCl)n1c(=O)on(C(=O)N(c2ccc(Cl)cc2)C(C)C)c1=O (stereo not shown) [Compound 458]
0: Nutsedge plant response rating [1, 5] | Plant response rating, Nutsedge [1, 12] | Plant response rating, Nutsedge [1, 8] | Nutsedge plant response rating [1, 9] | Nutsedge plant response rating [1, 10] | Nutsedge plant response rating [1, 13] | Nutsedge plant response rating [1, 11] | Plant response rating, S. Flatsedge (0 to 10 scale, 0 is no effect, 10 is complete control) [2, 14] | S. Flatsedge plant response rating (0 to 10 scale, 0 is no effect, 10 is complete control) [2, 15] | S. Flatsedge plant response rating [2, 16] | S. Flatsedge plant response rating [2, 17] | Rape plant response rating [3, 5] | Plant response rating, Rape [3, 12] | Plant response rating, Rape [3, 8] | Rape plant response rating [3, 13] | Rape plant response rating [3, 11]
4: Rape plant response rating [3, 10]
3: Rape plant response rating [3, 9]

COC(=O)C(C)n1c(=O)on(C(=O)N(c2ccc(F)cc2F)C(C)C)c1=O (stereo not shown) [Compound 463]
0: Nutsedge plant response rating [1, 5] | Plant response rating, Nutsedge [1, 12] | Plant response rating, Nutsedge [1, 8] | Nutsedge plant response rating [1, 9] | Nutsedge plant response rating [1, 10] | Nutsedge plant response rating [1, 13] | Nutsedge plant response rating [1, 11] | Plant response rating, S. Flatsedge (0 to 10 scale, 0 is no effect, 10 is complete control) [2, 14] | S. Flatsedge plant response rating (0 to 10 scale, 0 is no effect, 10 is complete control) [2, 15] | S. Flatsedge plant response rating [2, 16] | S. Flatsedge plant response rating [2, 17] | Rape plant response rating [3, 5] | Plant response rating, Rape [3, 12] | Plant response rating, Rape [3, 8] | Rape plant response rating [3, 9] | Rape plant response rating [3, 10] | Rape plant response rating [3, 13] | Rape plant response rating [3, 11]

CCOC(=O)CC(C(=O)OCC)n1c(=O)on(C(=O)N(c2ccc(F)cc2F)C(C)C)c1=O (stereo not shown) [Compound 465]
2: Plant response rating, Rape [3, 8] | Rape plant response rating [3, 9]
0: Nutsedge plant response rating [1, 5] | Plant response rating, Nutsedge [1, 12] | Plant response rating, Nutsedge [1, 8] | Nutsedge plant response rating [1, 9] | Nutsedge plant response rating [1, 10] | Nutsedge plant response rating [1, 13] | Nutsedge plant response rating [1, 11] | Plant response rating, S. Flatsedge (0 to 10 scale, 0 is no effect, 10 is complete control) [2, 14] | S. Flatsedge plant response rating (0 to 10 scale, 0 is no effect, 10 is complete control) [2, 15] | S. Flatsedge plant response rating [2, 16] | S. Flatsedge plant response rating [2, 17] | Rape plant response rating [3, 5] | Plant response rating, Rape [3, 12] | Rape plant response rating [3, 13] | Rape plant response rating [3, 11]
5: Rape plant response rating [3, 10]

COC(OC)C(C)n1c(=O)on(C(=O)N(c2ccc(F)cc2F)C(C)C)c1=O (stereo not shown) [Compound 472]
0: Nutsedge plant response rating [1, 5] | Plant response rating, Nutsedge [1, 12] | Plant response rating, Nutsedge [1, 8] | Nutsedge plant response rating [1, 9] | Nutsedge plant response rating [1, 13] | Nutsedge plant response rating [1, 11] | Plant response rating, S. Flatsedge (0 to 10 scale, 0 is no effect, 10 is complete control) [2, 14] | S. Flatsedge plant response rating (0 to 10 scale, 0 is no effect, 10 is complete control) [2, 15] | S. Flatsedge plant response rating [2, 16] | S. Flatsedge plant response rating [2, 17] | Rape plant response rating [3, 5] | Plant response rating, Rape [3, 12] | Plant response rating, Rape [3, 8] | Rape plant response rating [3, 9] | Rape plant response rating [3, 13] | Rape plant response rating [3, 11]
10: Nutsedge plant response rating [1, 10]
4: Rape plant response rating [3, 10]
